According to PubChem BioAssay AID2060331 (Molecular Pharmacology Branch, DTP, NCI, 2025):

Tested on: Hs578T multi-cell spheroids, viability
Assay: Anticancer human tumor Hs578T cell line growth inhibition [IpAb];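 note: drug exposure lasted 7 days before readout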
Settings: for IC50: curve of first compound; for viability, T/C: stronger effect = lower value
In short: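 Combinations with ipatasertib or abemaciclib were tested on tumour spheroids holding HUVEC (25%) and MSC (15%) alongside 60% malignant cells. Top concentration was at or near clinical Cmax (10 microM if undefined), descending in half-log steps.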

[1] = second compound 0.01 µM, first compound 0.00949 µM
[2] = second compound 0.01 µM, first compound 0.03 µM
[3] = second compound 0.01 µM, first compound 0.0949 µM
[4] = second compound 0.01 µM, first compound 0.3 µM
[5] = second compound 0.0316 µM, first compound 0.00949 µM
[6] = second compound 0.0316 µM, first compound 0.03 µM
[7] = second compound 0.0316 µM, first compound 0.0949 µM
[8] = second compound 0.0316 µM, first compound 0.3 µM
[9] = second compound 0.1 µM, first compound 0.00949 µM
[10] = second compound 0.1 µM, first compound 0.03 µM
[11] = second compound 0.1 µM, first compound 0.0949 µM
[12] = second compound 0.1 µM, first compound 0.3 µM
[13] = second compound 0.316 µM, first compound 0.00949 µM
[14] = second compound 0.316 µM, first compound 0.03 µM
[15] = second compound 0.316 µM, first compound 0.0949 µM
[16] = second compound 0.316 µM, first compound 0.3 µM
[17] = second compound 1 µM, first compound 0.00949 µM
[18] = second compound 1 µM, first compound 0.03 µM
[19] = second compound 1 µM, first compound 0.0949 µM
[20] = second compound 1 µM, first compound 0.3 µM
[21] = second compound 0.01 µM, first compound 0.0316 µM
[22] = second compound 0.01 µM, first compound 0.1 µM
[23] = second compound 0.01 µM, first compound 0.316 µM
[24] = second compound 0.01 µM, first compound 1 µM
[25] = second compound 0.01 µM, first compound 3.16 µM
[26] = second compound 0.01 µM, first compound 10 µM
[27] = second compound 0.0316 µM, first compound 0.0316 µM
[28] = second compound 0.0316 µM, first compound 0.1 µM
[29] = second compound 0.0316 µM, first compound 0.316 µM
[30] = second compound 0.0316 µM, first compound 1 µM
[31] = second compound 0.0316 µM, first compound 3.16 µM
[32] = second compound 0.0316 µM, first compound 10 µM
[33] = second compound 0.1 µM, first compound 0.0316 µM
[34] = second compound 0.1 µM, first compound 0.1 µM
[35] = second compound 0.1 µM, first compound 0.316 µM
[36] = second compound 0.1 µM, first compound 1 µM
[37] = second compound 0.1 µM, first compound 3.16 µM
[38] = second compound 0.1 µM, first compound 10 µM
[39] = second compound 0.316 µM, first compound 0.0316 µM
[40] = second compound 0.316 µM, first compound 0.1 µM
[41] = second compound 0.316 µM, first compound 0.316 µM
[42] = second compound 0.316 µM, first compound 1 µM
[43] = second compound 0.316 µM, first compound 3.16 µM
[44] = second compound 0.316 µM, first compound 10 µM
[45] = second compound 1 µM, first compound 0.0316 µM
[46] = second compound 1 µM, first compound 0.1 µM
[47] = second compound 1 µM, first compound 0.316 µM
[48] = second compound 1 µM, first compound 1 µM
[49] = second compound 1 µM, first compound 3.16 µM
[50] = second compound 1 µM, first compound 10 µM

`CC(=O)c1c(C)c2cnc(Nc3ccc(N4CCNCC4)cn3)nc2n(C2CCCC2)c1=O` + CCN1CCN(Cc2ccc(Nc3ncc(F)c(-c4cc(F)c5nc(C)n(C(C)C)c5c4)n3)nc2)CC1 was tested, and the IC50 (second compound 0.01 µM) was greater than 0.3 µM, the IC50 (second compound 0.0316 µM) was greater than 0.3 µM and the IC50 (second compound 0.1 µM) was greater than 0.3 µM. The IC50 (second compound 0.316 µM) was greater than 0.3 µM, the IC50 (second compound 1 µM) was greater than 0.3 µM and the viability, T/C (second compound 0.01 µM, first compound 0.000949 µM) was 106%. It also gave a viability, T/C (second compound 0.01 µM, first compound 0.003 µM) of 95.1%, a viability, T/C [1] of 95% and a viability, T/C [2] of 81.9%. It also gave a viability, T/C [3] of 77.5%, a viability, T/C [4] of 63.4% and a viability, T/C (second compound 0.0316 µM, first compound 0.000949 µM) of 91.3%. For the same compound, the viability, T/C (second compound 0.0316 µM, first compound 0.003 µM) was 89.1%, the viability, T/C [5] was 90.3% and the viability, T/C [6] was 73.3%. It also gave a viability, T/C [7] of 69.3%, a viability, T/C [8] of 60.5% and a viability, T/C (second compound 0.1 µM, first compound 0.000949 µM) of 75.6%. It also gave a viability, T/C (second compound 0.1 µM, first compound 0.003 µM) of 80.8%, a viability, T/C [9] of 81.8% and a viability, T/C [10] of 80.8%. The viability, T/C [11] was 66%, the viability, T/C [12] was 73.3% and the viability, T/C (second compound 0.316 µM, first compound 0.000949 µM) was 81.3%. It also gave a viability, T/C (second compound 0.316 µM, first compound 0.003 µM) of 85.2%, a viability, T/C [13] of 82.2% and a viability, T/C [14] of 79.8%. It also gave a viability, T/C [15] of 70.7%, a viability, T/C [16] of 68% and a viability, T/C (second compound 1 µM, first compound 0.000949 µM) of 93%. For the same compound, the viability, T/C (second compound 1 µM, first compound 0.003 µM) was 98.5%, the viability, T/C [17] was 93.7% and the viability, T/C [18] was 96.7%. It also gave a viability, T/C [19] of 89.5% and a viability, T/C [20] of 89%.

Compound `CC(C)(C)c1cnc(CSc2cnc(NC(=O)C3CCNCC3)s2)o1` + CCN1CCN(Cc2ccc(Nc3ncc(F)c(-c4cc(F)c5nc(C)n(C(C)C)c5c4)n3)nc2)CC1 has an IC50 (second compound 0.01 µM) of 0.181 µM, an IC50 (second compound 0.0316 µM) of 0.181 µM and an IC50 (second compound 0.1 µM) of 0.167 µM. It also gave an IC50 (second compound 0.316 µM) of 0.169 µM, an IC50 (second compound 1 µM) of 0.115 µM and a viability, T/C [1] of 101%. It also gave a viability, T/C [2] of 114%, a viability, T/C [3] of 114% and a viability, T/C [4] of 3.69%. The viability, T/C (second compound 0.01 µM, first compound 0.949 µM) was 3.37%, the viability, T/C (second compound 0.01 µM, first compound 3 µM) was 3.55% and the viability, T/C [5] was 99%. The viability, T/C [6] was 113%, the viability, T/C [7] was 118% and the viability, T/C [8] was 2.94%. It also gave a viability, T/C (second compound 0.0316 µM, first compound 0.949 µM) of 2.55%, a viability, T/C (second compound 0.0316 µM, first compound 3 µM) of 2.82% and a viability, T/C [9] of 100%. The viability, T/C [10] was 99.9%, the viability, T/C [11] was 95.3% and the viability, T/C [12] was 2.53%. For the same compound, the viability, T/C (second compound 0.1 µM, first compound 0.949 µM) was 2.48%, the viability, T/C (second compound 0.1 µM, first compound 3 µM) was 3.11% and the viability, T/C [13] was 104%. For the same compound, the viability, T/C [14] was 104%, the viability, T/C [15] was 97.2% and the viability, T/C [16] was 2.46%. For the same compound, the viability, T/C (second compound 0.316 µM, first compound 0.949 µM) was 3.54%, the viability, T/C (second compound 0.316 µM, first compound 3 µM) was 3.59% and the viability, T/C [17] was 109%. The viability, T/C [18] was 107%, the viability, T/C [19] was 59.6% and the viability, T/C [20] was 2.32%. It also gave a viability, T/C (second compound 1 µM, first compound 0.949 µM) of 2.79% and a viability, T/C (second compound 1 µM, first compound 3 µM) of 4.16%.

Work on `Cc1nc(NC(=O)N2CCCC2C(N)=O)sc1-c1ccnc(C(C)(C)C(F)(F)F)c1` (stereo not given) + CCN1CCN(Cc2ccc(Nc3ncc(F)c(-c4cc(F)c5nc(C)n(C(C)C)c5c4)n3)nc2)CC1 yielded an IC50 (second compound 0.01 µM) of 1.78 µM, an IC50 (second compound 0.0316 µM) of 0.856 µM and an IC50 (second compound 0.1 µM) of 0.804 µM. For the same compound, the IC50 (second compound 0.316 µM) was 1.07 µM, the IC50 (second compound 1 µM) was 1.23 µM and the viability, T/C [21] was 98.5%. The viability, T/C [22] was 87.2%, the viability, T/C [23] was 75.9% and the viability, T/C [24] was 61.1%. The viability, T/C [25] was 40.4%, the viability, T/C [26] was 11.9% and the viability, T/C [27] was 88.5%. The viability, T/C [28] was 72.3%, the viability, T/C [29] was 57.2% and the viability, T/C [30] was 51.2%. For the same compound, the viability, T/C [31] was 38.7%, the viability, T/C [32] was 11.7% and the viability, T/C [33] was 77%. The viability, T/C [34] was 68.4%, the viability, T/C [35] was 60.6% and the viability, T/C [36] was 43.9%. It also gave a viability, T/C [37] of 37.3%, a viability, T/C [38] of 11.4% and a viability, T/C [39] of 68.5%. It also gave a viability, T/C [40] of 66.7%, a viability, T/C [41] of 60.4% and a viability, T/C [42] of 47.7%. It also gave a viability, T/C [43] of 39.8%, a viability, T/C [44] of 17% and a viability, T/C [45] of 92.1%. It also gave a viability, T/C [46] of 83.3%, a viability, T/C [47] of 66.7% and a viability, T/C [48] of 56.5%. The viability, T/C [49] was 34% and the viability, T/C [50] was 23.5%.

`Cn1nccc1Nc1nccc(-c2ccn(C(CO)c3ccc(Cl)c(F)c3)c(=O)c2)n1` (stereo not given) + CCN1CCN(Cc2ccc(Nc3ncc(F)c(-c4cc(F)c5nc(C)n(C(C)C)c5c4)n3)nc2)CC1 was tested, and the IC50 (second compound 0.01 µM) was 5.69 µM, the IC50 (second compound 0.0316 µM) was 4.08 µM and the IC50 (second compound 0.1 µM) was 3.49 µM. For the same compound, the IC50 (second compound 0.316 µM) was 6.16 µM, the IC50 (second compound 1 µM) was 2.06 µM and the viability, T/C [21] was 100%. For the same compound, the viability, T/C [22] was 109%, the viability, T/C [23] was 110% and the viability, T/C [24] was 88.8%. The viability, T/C [25] was 64.1%, the viability, T/C [26] was 37.3% and the viability, T/C [27] was 92.2%. For the same compound, the viability, T/C [28] was 99.8%, the viability, T/C [29] was 96.3% and the viability, T/C [30] was 73.5%. It also gave a viability, T/C [31] of 61.6%, a viability, T/C [32] of 18.1% and a viability, T/C [33] of 79.2%. For the same compound, the viability, T/C [34] was 86.7%, the viability, T/C [35] was 88.6% and the viability, T/C [36] was 59.6%. The viability, T/C [37] was 56.5%, the viability, T/C [38] was 27.6% and the viability, T/C [39] was 79%. It also gave a viability, T/C [40] of 86.3%, a viability, T/C [41] of 86% and a viability, T/C [42] of 71.3%. For the same compound, the viability, T/C [43] was 63.8%, the viability, T/C [44] was 40.2% and the viability, T/C [45] was 81.8%. It also gave a viability, T/C [46] of 79.7%, a viability, T/C [47] of 85.5% and a viability, T/C [48] of 58.8%. The viability, T/C [49] was 50.4% and the viability, T/C [50] was 39.2%.
